Results on 35 molecules are retold here after US10189788B2, “Substituted N,2-diarylquinoline-4-carboxamides and the use thereof as anti-inflammatory agents” (BAYER PHARMA AKTIENGESELLSCHAFT, priority 2014, dated 2019).

Each structure is given as a SMILES string.

In this assay the target is Human FP Receptor (Homo sapiens (Human), UniProt P43088). Nature of the assay: In vitro test of inhibition of human FP receptor activity, variant B-1A (PGF2α-induced calcium flux in FP-expressing CHEM1 cells). The settings on record: calcium flux induced by 3 nM PGF2α, Fluo-8, some mean values from multiple determinations. The format is cell-based. The text has this: • BSA bovine serum albumin • CRTH2 chemoattractant receptor-homologous molecule expressed on T helper type 2 cells • DMEM Dulbecco's modified Eagle's medium • DMSO dimethyl sulfoxide • DP PGD2 receptor • EC50 half-maximum effective concentration • em. emission • EP PGE2 receptor • ex. excitation • FCS fetal calf serum • FP PGF2α receptor • HEPES 2-[4-(2-hydroxyethyl)piperazin-1-yl]ethanesulfonic acid • IC50 half-maximum inhibitory concentration • IP PGI2 receptor • MES 2-(N-morpholino)ethanesulfonic acid • Pen/Strep penicillin/streptomycin • PGD2 prostaglandin D2 • PGE2 prostaglandin E2 • PGF2α prostaglandin F2α • PGI2 prostaglandin […] • TC tissue culture • TP thromboxane A2 receptor • Tris tris(hydroxymethyl)aminomethane • v/v volume to volume ratio (of a solution) • w/w weight to weight ratio (of a solution) B-1.
Human FP Receptor, sequence (P43088 whole entry): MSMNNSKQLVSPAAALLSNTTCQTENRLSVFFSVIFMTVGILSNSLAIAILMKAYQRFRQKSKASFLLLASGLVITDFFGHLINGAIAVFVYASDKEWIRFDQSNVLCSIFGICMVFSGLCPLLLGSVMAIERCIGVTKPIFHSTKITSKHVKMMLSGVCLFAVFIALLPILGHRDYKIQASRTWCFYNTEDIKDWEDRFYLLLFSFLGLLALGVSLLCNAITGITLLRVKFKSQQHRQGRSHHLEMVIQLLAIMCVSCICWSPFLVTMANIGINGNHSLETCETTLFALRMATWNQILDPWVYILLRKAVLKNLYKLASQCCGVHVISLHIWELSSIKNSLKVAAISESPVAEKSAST
In general terms: Calcium assays in cells follow changes in intracellular calcium, usually with a dye or a luminescent sensor.
Regarding `Cc1c(-c2ccccc2)nc2ccc(Br)cc2c1C(=O)Nc1ccc(C(=O)O)cc1` [Example 1, 4-{[(6-Bromo-3-methyl-2-phenylquinolin-4-yl)carbonyl]amino}benzoic acid], the IC50 (as a rule, the point on the concentration scale where inhibition reaches its midpoint) was 166 nM.
The figure for `Cc1c(-c2ccccc2)nc2ccc(Br)cc2c1C(=O)Nc1cnc(C(=O)O)cn1` [Example 3, 5-{[(6-Bromo-3-methyl-2-phenylquinolin-4-yl)carbonyl]amino}pyrazine-2-carboxylic acid] is 170 nM; for `Cc1c(-c2ccccc2)nc2ccc(Br)cc2c1C(=O)Nc1cnc(C(=O)O)nc1` [Example 4, 5-{[(6-Bromo-3-methyl-2-phenylquinolin-4-yl)carbonyl]amino}pyrimidine-2-carboxylic acid] it is 880 nM; for `Cc1nc(C(=O)O)ccc1NC(=O)c1c(C)c(-c2ccccc2)nc2ccc(Br)cc12` [Example 5, 5-{[(6-Bromo-3-methyl-2-phenylquinolin-4-yl)carbonyl]amino}-6-methylpyridine-2-carboxylic acid] it is 905 nM.
The figure for `Cc1c(-c2ccccc2)nc2ccc(Br)cc2c1C(=O)Nc1ncc(C(=O)O)cc1F` [Example 6, 6-{[(6-Bromo-3-methyl-2-phenylquinolin-4-yl)carbonyl]amino}-5-fluoronicotinic acid] is 79 nM.
For `Cc1c(-c2ccccc2)nc2ccc(Br)cc2c1C(=O)Nc1ccc(C(=O)O)c(F)c1` [Example 8, 4-{[(6-Bromo-3-methyl-2-phenylquinolin-4-yl)carbonyl]amino}-2-fluorobenzoic acid] the value was 795 nM.
As to `Cc1c(-c2ccccc2)nc2ccc(Br)cc2c1C(=O)Nc1ccc(C(=O)O)cc1Cl` [Example 9, 4-{[(6-Bromo-3-methyl-2-phenylquinolin-4-yl)carbonyl]amino}-3-chlorobenzoic acid], the 50% inhibitory concentration (IC50) was determined as 65 nM.
The figure for `Cc1c(-c2ccccc2)nc2ccc(Br)cc2c1C(=O)Nc1ccc(C(=O)O)cc1Br` [Example 10, 3-Bromo-4-{[(6-bromo-3-methyl-2-phenylquinolin-4-yl)carbonyl]amino}benzoic acid] is 41 nM; for `Cc1c(-c2ccccc2)nc2ccc(Br)cc2c1C(=O)Nc1c(F)cc(C(=O)O)cc1F` [Example 12, 4-{[(6-Bromo-3-methyl-2-phenylquinolin-4-yl)carbonyl]amino}-3,5-difluorobenzoic acid] it is 22 nM; for `Cc1c(-c2ccccc2)nc2ccc(Br)cc2c1C(=O)Nc1c(Cl)cc(C(=O)O)cc1Cl` [Example 13, 4-{[(6-Bromo-3-methyl-2-phenylquinolin-4-yl)carbonyl]amino}-3,5-dichlorobenzoic acid] it is 150 nM.
For `Cc1cc(C(=O)O)ccc1NC(=O)c1c(C)c(-c2ccccc2)nc2ccc(Br)cc12` [Example 14, 4-{[(6-Bromo-3-methyl-2-phenylquinolin-4-yl)carbonyl]amino}-3-methylbenzoic acid] the value was 617 nM; for `Cc1c(-c2ccccc2)nc2ccc(Br)cc2c1C(=O)Nc1ccc(C(=O)O)cc1C(F)(F)F` [Example 15, 4-{[(6-Bromo-3-methyl-2-phenylquinolin-4-yl)carbonyl]amino}-3-(trifluoromethyl)benzoic acid], 45 nM.
For `Cc1c(-c2ccccc2)nc2ccc(Br)cc2c1C(=O)Nc1ccc(C(=O)O)cc1C#N` [Example 16, 4-{[(6-Bromo-3-methyl-2-phenylquinolin-4-yl)carbonyl]amino}-3-cyanobenzoic acid] the value was 278 nM; for `Cc1c(-c2ccccc2)nc2ccc(Br)cc2c1C(=O)Nc1ccc(C(=O)O)cc1N` [Example 18, 3-Amino-4-{[(6-bromo-3-methyl-2-phenylquinolin-4-yl)carbonyl]amino}benzoic acid], 335 nM.
With `CC(=O)Nc1cc(C(=O)O)ccc1NC(=O)c1c(C)c(-c2ccccc2)nc2ccc(Br)cc12` [Example 19, 3-Acetamido-4-{[(6-bromo-3-methyl-2-phenylquinolin-4-yl)carbonyl]amino}benzoic acid], the IC50 was determined as 650 nM.
As to `CCNC(=O)Nc1cc(C(=O)O)ccc1NC(=O)c1c(C)c(-c2ccccc2)nc2ccc(Br)cc12` [Example 20, 4-{[(6-Bromo-3-methyl-2-phenylquinolin-4-yl)carbonyl]amino}-3-[(ethylcarbamoyl)amino]benzoic acid], the IC50 turned out to be 530 nM.
The figure for `COc1cc(C(=O)O)ccc1NC(=O)c1c(C)c(-c2ccccc2)nc2ccc(Br)cc12` [Example 21, 4-{[(6-Bromo-3-methyl-2-phenylquinolin-4-yl)carbonyl]amino}-3-methoxybenzoic acid] is 204 nM; for `Cc1c(-c2ccccc2)nc2ccc(Br)cc2c1C(=O)Nc1ccc(C(=O)O)cc1OC(F)(F)F` [Example 23, 4-{[(6-Bromo-3-methyl-2-phenylquinolin-4-yl)carbonyl]amino}-3-(trifluoromethoxy)benzoic acid] it is 57 nM.
`CSc1cc(C(=O)O)ccc1NC(=O)c1c(C)c(-c2ccccc2)nc2ccc(Br)cc12` [Example 24, 4-{[(6-Bromo-3-methyl-2-phenylquinolin-4-yl)carbonyl]amino}-3-(methylsulfanyl)benzoic acid]: the IC50 was found to be 124 nM.
For `Cc1c(-c2ccccc2)nc2ccc(Br)cc2c1C(=O)Nc1ccc(C(=O)O)cc1[S+](C)[O-]` (centres unmarked) [Example 25, 4-{[(6-Bromo-3-methyl-2-phenylquinolin-4-yl)carbonyl]amino}-3-(methylsulfinyl)benzoic acid] the value was 720 nM.
For `Cc1c(-c2ccccc2)nc2ccc(Br)cc2c1C(=O)Nc1ccc(C(=O)O)cc1S(C)(=O)=O` [Example 26, 4-{[(6-Bromo-3-methyl-2-phenylquinolin-4-yl)carbonyl]amino}-3-(methylsulfonyl)benzoic acid] the value was 86 nM; for `CCS(=O)(=O)c1cc(C(=O)O)c(OC)cc1NC(=O)c1c(C)c(-c2ccccc2)nc2ccc(Br)cc12` [Example 27, 4-{[(6-Bromo-3-methyl-2-phenylquinolin-4-yl)carbonyl]amino}-5-(ethylsulfonyl)-2-methoxybenzoic acid], 97 nM.
The figure for `Cc1c(-c2ccccc2)nc2ccc(Br)cc2c1C(=O)Nc1ccc(C(=O)O)cc1SC(F)(F)F` [Example 28, 4-{[(6-Bromo-3-methyl-2-phenylquinolin-4-yl)carbonyl]amino}-3-[(trifluoromethyl)sulfanyl]benzoic acid] is 17 nM; for `Cc1c(-c2ccccc2)nc2ccc(F)cc2c1C(=O)Nc1ccc(C(=O)O)cc1F` [Example 29, 3-Fluoro-4-{[(6-fluoro-3-methyl-2-phenylquinolin-4-yl)carbonyl]amino}benzoic acid] it is 890 nM; for `Cc1c(-c2ccccc2)nc2ccc(I)cc2c1C(=O)Nc1ccc(C(=O)O)cc1F` [Example 30, 3-Fluoro-4-{[(6-iodo-3-methyl-2-phenylquinolin-4-yl)carbonyl]amino}benzoic acid] it is 6 nM.
`Cc1ccc2nc(-c3ccccc3)c(C)c(C(=O)Nc3ccc(C(=O)O)cc3F)c2c1` [Example 31, 4-{[(3,6-Dimethyl-2-phenylquinolin-4-yl)carbonyl]amino}-3-fluorobenzoic acid]: the IC50 was determined as 165 nM.
Turning to `CCc1ccc2nc(-c3ccccc3)c(C)c(C(=O)Nc3ccc(C(=O)O)cc3F)c2c1` [Example 32, 4-{[(6-Ethyl-3-methyl-2-phenylquinolin-4-yl)carbonyl]amino}-3-fluorobenzoic acid], the IC50 amounted to 245 nM.
For the molecule `Cc1c(-c2ccccc2)nc2ccc(C(C)C)cc2c1C(=O)Nc1ccc(C(=O)O)cc1F` [Example 33, 3-Fluoro-4-{[(6-isopropyl-3-methyl-2-phenylquinolin-4-yl)carbonyl]amino}benzoic acid], the half-inhibitory concentration (IC50) came out at 272 nM.
For `Cc1c(-c2ccccc2)nc2ccc(C(F)(F)F)cc2c1C(=O)Nc1ccc(C(=O)O)cc1F` [Example 34, 3-Fluoro-4-({[3-methyl-2-phenyl-6-(trifluoromethyl)quinolin-4-yl]carbonyl}amino)benzoic acid] the value was 93 nM.
For `Cc1c(-c2ccccc2)nc2ccc(OC(F)(F)F)cc2c1C(=O)Nc1ccc(C(=O)O)cc1F` [Example 35, 3-Fluoro-4-({[3-methyl-2-phenyl-6-(trifluoromethoxy)quinolin-4-yl]carbonyl}amino)benzoic acid] the value was 290 nM; for `Cc1c(-c2ccccc2)nc2ccc([Si](C)(C)C)cc2c1C(=O)Nc1ccc(C(=O)O)cc1F` [Example 36, 3-Fluoro-4-({[3-methyl-2-phenyl-6-(trimethylsilyl)quinolin-4-yl]carbonyl}amino)benzoic acid], 78 nM; for `O=C(O)c1ccc(NC(=O)c2c(CF)c(-c3ccccc3)nc3ccc(Br)cc23)c(F)c1` [Example 37, 4-({[6-Bromo-3-(fluoromethyl)-2-phenylquinolin-4-yl]carbonyl}amino)-3-fluorobenzoic acid], 39 nM.
For `O=C(O)c1ccc(NC(=O)c2c(C(F)F)c(-c3ccccc3)nc3ccc(Br)cc23)c(F)c1` [Example 38, 4-({[6-Bromo-3-(difluoromethyl)-2-phenylquinolin-4-yl]carbonyl}amino)-3-fluorobenzoic acid] the value was 265 nM; for `CCc1c(-c2ccccc2)nc2ccc(Br)cc2c1C(=O)Nc1ccc(C(=O)O)cc1F` [Example 39, 4-{[(6-Bromo-3-ethyl-2-phenylquinolin-4-yl)carbonyl]amino}-3-fluorobenzoic acid], 190 nM; for `CCCc1c(-c2ccccc2)nc2ccc(Br)cc2c1C(=O)Nc1ccc(C(=O)O)cc1F` [Example 40, 4-{[(6-Bromo-2-phenyl-3-propylquinolin-4-yl)carbonyl]amino}-3-fluorobenzoic acid], 560 nM.
